Measurements from patent US20190365784A1, “USE OF BRASSINOSTEROID ANALOGS FOR THE TREATMENT OF DERMAL DISORDERS BY SELECTIVELY MODULATING LIVER X RECEPTORS (LXR) AND DERMAL DISEASE TREATMENT BY BRASSINOSTEROID ANALOGS ACTING AS SELECTIVE LIVER X RECEPTOR (LXR) MODULATORS” (CONSEJO NACIONAL DE INVESTIGACIONES CIENTÍFICAS Y TÉCNICAS …, priority 2015, published 2019).

Experiments:
LXR-alpha [1] = biological target: T1, LXR-alpha (Homo sapiens, UniProt Q13133); assay: LXR-alpha/RXR LRE-luciferase reporter in transfected BHK cells; assay type: cell-based; design: expressed in transfected cells; host or cells: BHK (baby hamster kidney cells), transient transfection as for HEK293T; details: for stimulation of LXR-alpha-driven gene transcription [(LXRE)-luciferase activity] / effect on LXR-alpha-driven expression of luciferase: 1 uM; for stimulation of LXR-alpha-driven gene transcription [(LXRE)-luciferase activity]: 3 uM and 10 uM; for effect on LXR-alpha-driven expression of luciferase / LXR-alpha-driven luciferase expression, increase compared with vehicle-treated cells: 18 h
T1 sequence (Q13133 1-447): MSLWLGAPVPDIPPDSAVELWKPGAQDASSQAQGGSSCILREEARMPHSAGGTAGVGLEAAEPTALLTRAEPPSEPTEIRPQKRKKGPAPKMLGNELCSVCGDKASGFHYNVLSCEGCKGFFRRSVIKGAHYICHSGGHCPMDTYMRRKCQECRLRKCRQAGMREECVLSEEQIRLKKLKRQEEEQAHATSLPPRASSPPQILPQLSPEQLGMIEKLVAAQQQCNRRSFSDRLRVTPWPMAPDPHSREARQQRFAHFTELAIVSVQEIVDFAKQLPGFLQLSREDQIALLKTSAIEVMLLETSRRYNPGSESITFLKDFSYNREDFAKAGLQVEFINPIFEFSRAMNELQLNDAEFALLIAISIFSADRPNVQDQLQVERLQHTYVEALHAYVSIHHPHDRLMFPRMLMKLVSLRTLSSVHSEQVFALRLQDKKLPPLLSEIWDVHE
T1 sequence (P19793 1-462 partner): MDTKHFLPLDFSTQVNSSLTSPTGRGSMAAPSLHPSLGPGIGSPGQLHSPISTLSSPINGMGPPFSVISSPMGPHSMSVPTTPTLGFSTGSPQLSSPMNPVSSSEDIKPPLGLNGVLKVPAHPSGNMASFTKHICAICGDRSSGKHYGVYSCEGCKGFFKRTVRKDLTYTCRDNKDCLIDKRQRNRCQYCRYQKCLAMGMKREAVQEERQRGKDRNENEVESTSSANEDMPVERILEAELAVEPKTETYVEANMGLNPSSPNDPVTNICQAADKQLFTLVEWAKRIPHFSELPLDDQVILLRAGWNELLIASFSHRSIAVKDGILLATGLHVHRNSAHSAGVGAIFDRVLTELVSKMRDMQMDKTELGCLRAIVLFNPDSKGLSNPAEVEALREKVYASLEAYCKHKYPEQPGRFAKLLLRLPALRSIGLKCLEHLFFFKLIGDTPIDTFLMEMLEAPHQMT
Protocol: B. Baby hamster kidney cells (5×10^5 cells/well) were cultured and transiently transfected as described above (Methods A.) for HEK293T cells. After transfection, the culture medium was replaced by serum-free DMEM, and the cells were incubated for 18 h with either Compound I or Compound II at 1×10^−6 M, 3×10^−6 M or 10^−5 M each, or vehicle [DMSO, 0.1% (v/v) final concentration], or GW3965 at a concentration of 10^−6 M. LXR-alpha activation was determined as described in A.

[2] = system: fatty acid synthase (FAS or FASN); assay: FASN expression in HepG2 cells (real time PCR); assay type: cell-based, human; details: 1 uM, 3 uM and 10 uM, 6 h
Protocol: (§3) The cells were incubated for 6 h in the presence of either Compound I (10 uM), or Compound II (10 uM), or the commercial LXR agonist GW3965 (1 uM), or Vehicle [DMSO, 0.1% (v/v)]). To obtain RNA, at the end of the incubation the cells were collected by centrifugation at 1,000 rpm for 2 min, washed with phosphate buffered saline, and lysed in 300 ul TRIZOL (Invitrogen). RNA samples were suspended in ul of RNAse free water, and their concentration determined (NanoDrop spectrophotometer). The ratio of the absorbance at 260 and 280 nm was used to assess RNA purity of an RNA preparation, with a value of 1.8-2.0 indicating pure RNA. To obtain cDNA, 1 ug of total RNA was denatured by incubating for 5 min at 70° C., before the addition of a mixture containing 0.5 ug oligo-dT primers and 25 ng/ml of random primers (Invitrogen), 1.0 mM dNTPs (Invitrogen), and 200 U M-MLV reverse transcriptase (Promega); after this the mixture was retrotranscribed at 37° C. for 60 min, followed by an incubation at 95° C. for 5 min to inactivate the enzyme. For the real time PCR amplification (Stratagene Thermal Cycler), cDNA samples were diluted 1/5 to 1/10 depending on the target amplification product. Calibration curves were obtained by use of eight successive 1:2 sample dilutions. Amplifications were carried out in a 25 ul final volume (5 ul cDNA sample plus 20 ul of reaction mixture) in the presence of either 3, 4 or 5 mM MgCl2 (depending on the amplified sequence), 0.25 mM dNTPs (Invitrogen), 1.25 U Taq polymerase (Invitrogen), 1 μM of the specific primers according to the target amplification sequence, and 0.025 μl SYBR Green (Roche). Melting curves were used to assess the specificity of the amplification products. […]

LXR-beta = LXR-beta expression in UV-irradiated HaCaT cells (real time PCR); assay type: cell-based, human; details: 10 uM, 24 h after UV, vs. DMSO (UV, 24 h) and GW3965 (UV, 24 h)
Protocol: (§1) HaCaT cells—a human immortalized keratinocyte cell line—were exposed to 15 J/m^2 UVB (254 nm) irradiation. Twenty four hours after irradiation, the cells were harvested and RNA isolated to assess the expression of LXR-alpha, LXR-beta, ABCA1, TNF-alpha, IL-6, and IL-8 genes. HaCaT cells were cultured in DMEM supplemented with 10% (v/v) fetal bovine serum, penicillin (100 U/mL), streptomycin ([…]) and glutamine (2 mM). […] The expressions of ABCA1, TNF-alpha, IL-6, IL-8, LXR-alpha, and LXR-beta were normalized according to glyceraldehyde-3-phosphate dehydrogenase (GAPDH) expression. The results of three independent assays, carried out in duplicate for each condition, are reported.

ABCG1 = ABCG1 expression in HepG2 cells (real time PCR); assay type: cell-based, human; details: 10 uM, 6 h
Protocol: as §3

LXR-alpha [3] = assay: LXR-alpha expression in UV-irradiated HaCaT cells (real time PCR); assay type: cell-based, human; details: 10 uM, 24 h after UV, vs. DMSO (UV, 24 h) and GW3965 (UV, 24 h)
Protocol: as §1

[4] = system: fatty acid synthase (FAS); assay: FAS expression in HL-60 cells (real time PCR); assay type: cell-based, human; details: 10 uM, 6 h
Protocol: (§2) To investigate the effects of Compounds I and II on the expression of three genes involved in lipid metabolism [fatty acid synthase (FAS); and two ATP-dependent cholesterol and phospholipid transporters, such as ABCA1 and ABCG1], human promyelocytic leukemia cells (HL-60) that endogenously express LXR-alpha and LXR-beta were incubated in the presence of either Comp I or Comp II (10 uM), or GW3965 (1 uM) for 6 h. mRNA levels for FAS, ABCA1 and ABCG1 were determined by real time PCR and results were normalized to GAPDH expression. HL-60 (10^6 cells/well) were cultured in RPMI medium supplemented with 5% (v/v) fetal bovine serum, penicillin (100 IU/mL), streptomycin (100 ug/mL) y cyprofloxacin (0.4 ug/mL). […] To obtain RNA, at the end of the incubation the cells were collected by centrifugation at 1,000 rpm for 2 min, washed with phosphate buffered saline, and lysed in 300 ul TRIZOL (Invitrogen). RNA samples were suspended in […] of RNAse free water, and their concentration determined (NanoDrop spectrophotometer). […] To obtain cDNA, 1 ug of total RNA was denatured by incubating for 5 min at 70° C., before the addition of a mixture containing 0.5 ug oligo-dT primers and 25 ng/ml of random primers (Invitrogen), 1.0 mM dNTPs (Invitrogen), and 200 U M-MLV reverse transcriptase (Promega); after this the mixture was retrotranscribed at 37° C. for 60 min, followed by an incubation at 95° C. for 5 min to inactivate the enzyme. For the real time PCR amplification (Stratagene Thermal Cycler), cDNA samples were diluted 1/5 to 1/10 depending on the target amplification product. Calibration curves were obtained by use of eight successive 1:2 sample dilutions. Amplifications were carried out in a 25 ul final volume (5 ul cDNA sample plus 20 ul of reaction mixture) in the presence of either 3, 4 or 5 mM MgCl2 (depending on the amplified sequence), 0.25 mM dNTPs (Invitrogen), 1.25 U Taq polymerase (Invitrogen), 1 μM of the specific primers according to the target amplification sequence, and 0.025 μl SYBR Green (Roche). […]

TNF-alpha = TNF-alpha expression in UV-irradiated HaCaT cells (real time PCR); assay type: cell-based, human; details: 10 uM, 24 h after UV (254 nm, 15 J/m^2), normalized to GAPDH
Protocol: as §1

ABCA1 = ABCA1 expression in HL-60 cells (real time PCR); assay type: cell-based, human; details: 10 uM, 6 h
Protocol: as §2

Structure (SMILES) | stimulation of LXR-alpha-driven gene transcription [(LXRE)-luciferase activity] (LXR-alpha [1]) | effect on LXR-alpha-driven expression of luciferase (LXR-alpha [1]) | LXR-alpha-driven luciferase expression, increase compared with vehicle-treated cells (LXR-alpha [1]; 3 uM) | induction of FASN expression [2] | LXR-beta expression (LXR-beta) | induction of ABCG1 expression (ABCG1) | LXR-alpha expression (LXR-alpha [3]) | FAS mRNA lower than in vehicle-treated cells [4] | TNF-alpha expression versus DMSO-treated cells (TNF-alpha) | effect on ABCA1 expression (ABCA1) | LXR-alpha-driven luciferase expression, increase compared with vehicle-treated cells (LXR-alpha [1]; 10 uM)
CC[C@@H](C(C)C)[C@H](O)[C@@H](O)[C@@H](C)[C@H]1CC[C@H]2[C@@H]3CCC4=CC(=O)CC[C@]4(C)[C@H]3CC[C@]12C [Compound I, (22S,23S)-22,23-dihydroxystigmast-4-en-3-one] | within the same concentration range as GW3965 | no effect | 3 fold | did not induce | stimulated LXR-beta expression even further | 8 times | stimulated LXR-alpha expression even further | ~40% | significantly lower | none of the test compounds significantly affected | 
CC[C@@H](C(C)C)[C@H](O)[C@@H](O)[C@@H](C)[C@H]1CC[C@H]2[C@@H]3CCC4=CC(=O)C=C[C@]4(C)[C@H]3CC[C@]12C [Compound II, (22S,23S)-22,23-dihydroxystigmasta-1,4-dien-3-one] | within the same concentration range as GW3965 | no effect | 3 fold | did not induce | more modest than that observed for Compound I | 3 times | stimulated LXR-alpha expression even further | ~40% | significantly lower | none of the test compounds significantly affected | 3 fold
